Laboratory results published in ChEMBL document CHEMBL4346729, “The discovery of novel 3-aryl-indazole derivatives as peripherally restricted pan-Trk inhibitors for the treatment of pain” (Bioorg Med Chem Lett, 2019).
Converted amounts (≈) assume the structure as drawn. The source made the active and inactive calls. The rule behind the calls is not given here.

What was measured:
[1] = Intrinsic clearance in human liver microsomes; format: ADME, Microsome; details: read-out: CLH
[2] = Apparent permeability from apical to basolateral side in MDCK cells at 50 umol/L at pH 7.4 incubated for 30 mins by LC-MS/MS analysis; format: ADME, cell-based, Canis lupus familiaris; details: dog
[3] = Solubility of test compound; format: physicochemical
[4] = Apparent permeability from apical to basolateral side in MDCK cells at 50 umol/L at pH 6.5 incubated for 30 mins by LC-MS/MS analysis; format: ADME, cell-based, Canis lupus familiaris; details: dog
[5] = tested on: Rattus norvegicus; experiment: Antinociceptive activity in CFA induced thermal hypersensitivity Sprague-Dawley rat model assessed as increase in paw withdrawal latency at 100 mg/kg, po after 1 hr; format: functional, organism-based

SMILES	CLint scaled [1] [mL/min/kg]	Papp A→B at 0.5 h, 50 µM [2] [×10⁻⁶ cm/s]	solubility [3] [µM]	Papp A→B at 0.5 h, 50 µM [4] [×10⁻⁶ cm/s]	Activity [5]
CN(Cc1ccccc1)c1ccc2[nH]nc(-c3ccc(N4CCNCC4)nc3)c2c1	417	7.3			
CC(C)(Nc1ccc2[nH]nc(-c3ccc(N4CCNCC4)nc3)c2c1)c1ccccc1	1740	11			
CS(=O)(=O)c1ccc(F)cc1CNc1ccc2[nH]nc(-c3ccccn3)c2c1	443	73.2	15.2 (≈ 6.03 µg/mL)		
CS(=O)(=O)c1ccc(F)cc1CNc1ccc2[nH]nc(-c3ccc(N4CCNCC4)nc3)c2c1	176 to 178	0.3 to 0.4	38.7 (≈ 18.6 µg/mL)	0.3	
Cn1ccc(-c2n[nH]c3ccc(NCc4cc(F)ccc4S(C)(=O)=O)cc23)n1	137	34	80.1 (≈ 32 µg/mL)		
c1ccc(CNc2ccc3[nH]nc(-c4ccc(N5CCNCC5)nc4)c3c2)cc1	12	13			
CS(=O)(=O)c1ccc(F)cc1CNc1ccc2[nH]nc(-c3cccnc3)c2c1	793	61.5	23 (≈ 9.12 µg/mL)		
c1ccc(COc2ccc3[nH]nc(-c4ccc(N5CCNCC5)nc4)c3c2)cc1	694	9.6			
CS(=O)(=O)c1ccccc1CNc1ccc2[nH]nc(-c3ccc(N4CCNCC4)nc3)c2c1	74	12.5		0.4	
CC(C)Cc1ccc(C(C)C(=O)O)cc1 (stereo unspecified)					Active
c1ccc(CCc2ccc3[nH]nc(-c4ccc(N5CCNCC5)nc4)c3c2)cc1	2730	3.1			

Continued, in another order:

CLint scaled [1] [mL/min/kg]	Papp A→B at 0.5 h, 50 µM [2] [×10⁻⁶ cm/s]	solubility [3] [µM]	Papp A→B at 0.5 h, 50 µM [4] [×10⁻⁶ cm/s]	SMILES	Activity [5]
217				COc1cncc(-c2n[nH]c3ccc(NCc4ccccc4NS(C)(=O)=O)cc23)c1	
833				COc1cccc(-c2n[nH]c3ccc(NCc4ccccc4NS(C)(=O)=O)cc23)n1	
359				COc1ccc(-c2n[nH]c3ccc(NCc4ccccc4NS(C)(=O)=O)cc23)cn1	
184	0.3			CS(=O)(=O)Nc1ccccc1CNc1ccc2[nH]nc(-c3ccc(NC4CCNCC4)nc3)c2c1	
323	0.3			CS(=O)(=O)Nc1ccccc1CNc1ccc2[nH]nc(-c3ccc(OC4CCNCC4)nc3)c2c1	
69.5 to 70	1.2			CS(=O)(=O)Nc1ccccc1CNc1ccc2[nH]nc(-c3ccc(N4CCNCC4)nc3)c2c1	
